Results published in PubChem BioAssay (NCI).
Values joined by “and” are separate entries in the source; they are usually repeats but may differ in a detail not shown here. Equal values may be shown once.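 The compound was tested at five concentrations on cells cultured in 96-well plates, with a 48-hour exposure period. Here, GI50 denotes the concentration required for 50% inhibition of growth. Definition used: TGI = concentration required for complete inhibition of growth.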

How the values were obtained:
Experiment in all cases: growth of human tumour cells (NCI), 48 h
[1] = system: M14 melanoma
[2] = system: MDA-MB-435
[3] = system: MOLT-4 leukemia
[4] = system: NCI/ADR-RES ovarian
[5] = system: OVCAR-8 ovarian
[6] = system: MDA-MB-231 breast
[7] = system: CCRF-CEM leukemia
[8] = system: 786-0 renal
[9] = system: SF-295 CNS
[10] = system: SNB-75 CNS

Row | SMILES | GI50 [1] | TGI [1] | GI50 [2] | TGI [2] | GI50 [3] | TGI [3] | GI50 [4] | TGI [4] | GI50 [5] | TGI [5] | GI50 [6] | TGI [6] | GI50 [7] | TGI [7] | GI50 [8] | TGI [8] | TGI [9] | TGI [10] | GI50 [9] | GI50 [10]
1 | CC(=Nc1ccccc1)C1=C(O)C(Cc2ccc(F)cc2)NC1=O (stereo not given) | 0.435 µM | > 100 µM | 0.16 µM | 0.449 µM | 3.18 µM | > 100 µM | 0.42 µM | 13.8 µM | 2.73 µM | > 100 µM | 1.7 µM | > 100 µM | 1.81 µM | > 100 µM | 9.67 µM | > 100 µM | – | – | – | –
2 | COc1cc2ccc3c4cc(OC)c(OC(C)C)cc4c[n+](C)c3c2cc1OC | – | > 100 µM | – | – | – | > 100 µM | – | – | – | > 100 µM | – | – | – | > 100 µM | – | > 100 µM | > 100 µM | > 100 µM | – | –
3 | COc1ccc(/C=C2\CCc3ccccc3C2=O)cc1OC | – | 50 µM | – | – | – | 71.3 µM | – | – | – | > 100 µM | – | – | – | > 100 µM | – | > 100 µM | 95.9 µM | 76.9 µM | – | –
4 | [N-]=[N+]=NC1C2CC3CC(C2)CC1C3 (stereo not given) | – | > 100 µM | – | – | – | > 100 µM | – | – | – | > 100 µM | – | – | – | > 100 µM | – | > 100 µM | > 100 µM | > 100 µM | – | –
5 | COc1ccc2c(c1OC)C(C=C(c1ccccc1)c1ccccc1)CN(C)C2 (stereo not given) | – | 31.3 µM | – | – | – | 64.7 µM | – | – | – | 67 µM | – | – | – | 56.6 µM | – | 39.5 µM | 80.3 µM | > 100 µM | – | –
6 | CN=C(N)NC | – | > 100 µM | – | – | – | > 100 µM | – | – | – | > 100 µM | – | – | – | > 100 µM | – | > 100 µM | > 100 µM | > 100 µM | – | –
7 | C/C(=N\NS(=O)(=O)c1c(C)cc(C)cc1C)c1ccc[n+]([O-])n1 | – | 20.7 µM | – | – | – | 37 µM | – | – | – | 79 µM | – | – | – | 18.2 µM | – | 36 µM | > 100 µM | 41.2 µM | – | –
8 | CCOc1ccc(N=Cc2ccc3ccccc3n2)cc1 | – | > 100 µM | – | – | – | > 100 µM | – | – | – | > 100 µM | – | – | – | > 100 µM | – | > 100 µM | > 100 µM | > 86.3 µM | – | –
9 | CC(=O)Oc1cc(Cl)c(OC(C)=O)c2c(OC(C)=O)c(C)c(O[Si](C)(C)C(C)(C)C)cc12 | – | 19.6 µM | – | – | – | 24.8 µM | – | – | – | 7.56 µM | – | – | – | 13.5 µM | – | 28.1 µM | 23 µM | – | – | –
10 | CCN(CC)CCC(=O)N1C/C(=C/c2ccccc2)C(=O)/C(=C\c2ccccc2)C1 | – | 6.63 µM | – | 5.5 µM | – | 1.33 µM | – | – | – | 10.2 µM | – | 2.57 µM | – | 0.947 µM | – | 9.78 µM | 5.15 µM | 12.5 µM | – | –
11 | CC1=CC2=C(C#N)C(=O)OC2(C)C(c2ccccc2)C1 (stereo not given) | – | > 100 µM | – | > 100 µM | – | > 100 µM | – | > 100 µM | – | > 100 µM | – | > 100 µM | – | – | – | > 100 µM | > 100 µM | > 100 µM | – | –
12 | Fc1ccc2c(c1)cc1ccc3cccc4ccc2c1c34 | – | > 100 µM | – | – | – | > 100 µM | – | – | – | > 100 µM | – | – | – | > 100 µM | – | > 100 µM | > 100 µM | > 100 µM | – | –
13 | Cc1nc(-n2nc(-c3ccccc3)cc2-c2ccccc2)sc1C(=O)/C=C/c1ccc(Cl)cc1 | – | – | – | – | – | 41 µM | – | – | – | > 100 µM | – | – | – | 78.1 µM | – | 27.4 µM | 30.5 µM | > 100 µM | – | –
14 | COC(=O)c1ccc(/C=C/S(=O)(=O)c2ccccc2)cc1 | – | > 100 µM | – | – | – | > 100 µM | – | – | – | > 100 µM | – | – | – | > 100 µM | – | > 100 µM | > 100 µM | > 100 µM | – | –
15 | CSC1SCC2C(=O)N(C)C(C(C)C)C(=O)OCC(NC(=O)c3cnc4ccccc4n3)C(=O)NC(C)C(=O)N(C)C1C(=O)N(C)C(C(C)C)C(=O)OCC(NC(=O)c1cnc3ccccc3n1)C(=O)NC(C)C(=O)N2C (stereo not given) | < 0.001 µM | 0.00121 µM and 0.00346 µM | – | – | < 0.001 µM | – | 0.0238 µM | 0.222 µM and 1.16 µM and 1.41 µM | < 0.001 µM | – | – | 0.00192 µM and 0.00985 µM and 0.0142 µM | < 0.001 µM | – | < 0.001 µM | – | – | – | < 0.001 µM | –
16 | CCC(=O)Nc1ncnc2ncn(C(=O)CC)c12 | – | > 100 µM | – | > 100 µM | – | > 100 µM | – | > 100 µM | – | > 100 µM | – | > 100 µM | – | – | – | > 100 µM | > 100 µM | > 100 µM | – | –
17 | CC(CCC(=O)O)c1ccc(Br)cc1 (stereo not given) | – | > 100 µM | – | – | – | > 100 µM | – | – | – | > 100 µM | – | – | – | > 100 µM | – | > 100 µM | > 100 µM | > 100 µM | – | –
18 | CC(C)c1cc(C(=O)[O-])c(O)c(C(C)C)c1.CC(C)c1cc(C(=O)[O-])c(O)c(C(C)C)c1.CC(C)c1cc(C(=O)[O-])c(O)c(C(C)C)c1.CC(C)c1cc(C(=O)[O-])c(O)c(C(C)C)c1.CC(C)c1cc(C(=O)[O-])c(O)c(C(C)C)c1.CC(C)c1cc(C(=O)[O-])c(O)c(C(C)C)c1.[Cu+2].[Mn+2].[Mn+2] | 14.8 µM | 30.4 µM | – | – | 20.3 µM | 66.1 µM | – | – | 29.3 µM | 81 µM | – | – | 15.8 µM | 42.8 µM | 20.3 µM | 46.9 µM | 49.5 µM | 68.7 µM | 18.1 µM | 24.8 µM
19 | CC(=O)OC1(C#N)CC2OC1C1N=NN(C(=O)OC(C)(C)C)C21 (stereo not given) | – | 51.2 µM | – | – | – | > 100 µM | – | – | – | > 100 µM | – | – | – | 83.8 µM | – | > 100 µM | > 100 µM | > 100 µM | – | –
20 | CCCCCCC(O)C(O)CCC(O)C1CCC(CCCCC(O)CC2=CC(C)OC2=O)O1 (stereo not given) | 17.7 µM | 36 µM | – | 55.2 µM | 13.4 µM | 43.9 µM | 11 µM | 7.03 µM and 29.3 µM | – | 6.65 µM | 18.5 µM | 6.4 µM and 46.9 µM | – | – | 21.9 µM | 52.1 µM | 20.1 µM | 60.8 µM | 0.0305 µM | 24.1 µM
21 | CC(C)Cc1ccc(C(C)/C=C2\CCC(CN3CCCCC3)C2=O)cc1 (stereo not given) | – | 18.2 µM | – | 28.2 µM | – | 5.7 µM | – | – | – | 12.8 µM | – | 17.2 µM | – | 5.51 µM | – | 3.38 µM | 26.5 µM | 33.7 µM | – | –
22 | CCN(CC)/[N+]([O-])=N/OCC(C)O (stereo not given) | – | > 100 µM | – | – | – | > 100 µM | – | – | – | > 100 µM | – | – | – | > 100 µM | – | > 100 µM | > 100 µM | > 100 µM | – | –
23 | CC(C)(C)C1CCC(=O)C(C(O)CC2CC(=O)N(c3ccccc3)C(=O)C2)C1 (stereo not given) | – | > 100 µM | – | – | – | > 100 µM | – | – | – | > 100 µM | – | – | – | > 100 µM | – | > 100 µM | > 100 µM | > 100 µM | – | –
